Source: patent publication US12336994B2, “Alpha polyglutamated tetrahydrofolates and uses thereof” (L.E.A.F. HOLDINGS GROUP LLC, priority 2018, dated 2025)

Experiments:
[1] = test system: NCI H2342 non-small cell lung cancer (NSCLC), adenocarcinoma subtype; experiment: CellTiter-Glo (CTG) luminescent cell viability assay, NCI H2342; assay type: cell-based, Human; conditions: NCI H2342, 48 hours of treatment
Method: (§1) Luciferase luminescence were recorded for each well.

HT-29 (colon cancer) = experiment: CellTiter-Glo (CTG) luminescent cell viability assay, HT-29; assay type: cell-based, Human; conditions: HT-29, 48 hours
Method: as §1

[2] = test system: CCD841 colon epithelium cells; experiment: Toxicity on CCD841 non-cancerous colon epithelial cells; assay type: cell-based; conditions: all concentrations tested (16 nM, 32 nM, 64 nM, 128 nM), 48 hours
Description: (§2) Methodologies used for cell line AML12 (non-cancerous liver cells) and CCD841 (non-cancerous colon epithelial cells) are similar to the methods used for cancer cells.

AML12 liver cells = experiment: Toxicity on AML12 non-cancerous liver cells; assay type: cell-based; conditions: all doses studied (16 nM to 128 nM), 48 hours
Description: as §2

Nc1nc2[nH]cc(CCc3ccc(C(=O)N[C@@H](CCC(=O)N[C@@H](CCC(=O)N[C@@H](CCC(=O)N[C@@H](CCC(=O)N[C@@H](CCC(=O)N[C@@H](CCC(=O)O)C(=O)O)C(=O)O)C(=O)O)C(=O)O)C(=O)O)C(=O)O)cc3)c2c(=O)[nH]1 [gG6, free pemetrexed L-gamma hexaglutamate]
potency (cytotoxic activity, dose response) compared among test articles and pemetrexed ([1]; listed as free L gamma G6): lowest potency
potency (cytotoxic activity, dose response) compared among test articles and pemetrexed ([1]; listed as free pemetrexed gG6): least potent
potency (cytotoxic activity, dose response) compared among test articles and pemetrexed (HT-29 (colon cancer); listed as free L gamma G6): lowest potency
potency (cytotoxic activity, dose response) compared among test articles and pemetrexed (HT-29 (colon cancer); listed as free pemetrexed gG6): least potent

Nc1nc2[nH]cc(CCc3ccc(C(=O)N[C@@H](CCC(=O)O)C(=O)O)cc3)c2c(=O)[nH]1 [pemetrexed]
decrease in the number of CCD841 colon epithelium cells [2]: ≥ 50%
reduction in the AML12 liver cell counts (AML12 liver cells): approximately 40%
